Assay: in vivo
Conditions: male, Sprague Dawley, rat; for bioavailability: % F; for AUC(0-t): AUC0-t; for half-life: T1/2
[1] = 9.8 ug, Concentrations of Peptide in Serum
[2] = 20 ug, Concentration of Peptide in Serum, Mean
[3] = 22 ug, Concentration of Peptide in Serum, Mean
[4] = 26.2 ug, Concentration of Peptide in Serum, Mean
[5] = 26.2 ug, Concentrations of Peptide in Serum
[6] = 27 ug, Concentration of Peptide in Serum, Mean
[7] = 27 ug, Concentrations of Peptide in Serum
[8] = 31 ug, Concentration of Peptide in Serum, Mean
[9] = 32 ug, Concentration of Peptide in Serum, Mean
[10] = 32 ug, Concentrations of Peptide in Serum
[11] = 45.6 ug, Concentration of Peptide in Serum, Mean
[12] = 54 ug, Concentrations of Peptide in Serum
[13] = 57.7 ug, Concentration of Peptide in Serum, Mean
[14] = 67.7 ug, Concentration of Peptide in Serum, Mean
[15] = 141.9 ug, Concentration of Peptide in Serum, Mean
[16] = 386.5 ug, Concentration of Peptide in Serum, Mean

bioavailability (9.8 ug): 49% | AUC(0-t) (9.8 ug): 5.72 ng·h/mL | Cmax (9.8 ug, Cmax): 12 ng/mL | level at 5 min [1]: 12 ng/mL | level at 0.25 h [1]: 9.65 ng/mL | level at 0.5 h [1]: 4.96 ng/mL | level at 0.75 h [1]: 2.07 ng/mL | level at 1 h [1]: 1.47 ng/mL | level at 1.5 h [1]: 0.62 ng/mL | level at 2 h [1]: 0.38 ng/mL | half-life (9.8 ug): 22 min | Tmax (9.8 ug): 5 min | bioavailability (20 ug): 47% | AUC(0-t) (20 ug): 9.6 ng·h/mL | Cmax (20 ug, Cmax): 11.9 ng/mL | level at 5 min [2]: 9.34 ng/mL | level at 0.25 h [2]: 11.9 ng/mL | level at 0.5 h [2]: 6.4 ng/mL | level at 0.75 h [2]: 7.12 ng/mL | level at 1.5 h [2]: 3.14 ng/mL | half-life (20 ug): 43 min | Tmax (20 ug): 15 min | bioavailability (20 ug/kg): 69% | AUC(0-t) (20 ug/kg): 2.77 ng·h/mL | Cmax (20 ug/kg, Cmax): 7.29 ng/mL | Cmax (20 ug/kg, Cmax (20 μg/kg Dose)): 7.29 ng/mL | half-life (20 ug/kg): 18 min | Tmax (20 ug/kg): 10 min | bioavailability (22 ug): 36% | AUC(0-t) (22 ug): 7.75 ng·h/mL | Cmax (22 ug, Cmax): 17.1 ng/mL | level at 5 min [3]: 17.1 ng/mL | level at 0.25 h [3]: 13.2 ng/mL | level at 0.5 h [3]: 6.46 ng/mL | level at 0.75 h [3]: 3.35 ng/mL | level at 1.5 h [3]: 0.8 ng/mL | half-life (22 ug): 19 min | Tmax (22 ug): 5 min | bioavailability (26.2 ug): 101% | AUC(0-t) (26.2 ug): 24.1 ng·h/mL | Cmax (26.2 ug, Cmax): 44 ng/mL | level at 5 min [4]: 34.6 ng/mL | level at 0.25 h [4]: 44 ng/mL | level at 0.5 h [4]: 17.3 ng/mL | level at 0.75 h [4]: 13.8 ng/mL | level at 1.5 h [4]: 2.22 ng/mL | level at 5 min [5]: 41.1 ng/mL | level at 10 min [5]: 26.7 ng/mL | level at 0.25 h [5]: 42.8 ng/mL | level at 0.5 h [5]: 17.4 ng/mL | level at 0.75 h [5]: 12.5 ng/mL | half-life (26.2 ug): 18 min | Tmax (26.2 ug): 15 min | AUC(0-t) (27 ug): 17 ng·h/mL | Cmax (27 ug, Cmax): 31 ng/mL | level at 5 min [6]: 32.6 ng/mL | level at 0.25 h [6]: 31 ng/mL | level at 0.5 h [6]: 18.1 ng/mL | level at 5 min (27 ug, Concentration of Peptide in Serum, individual rat): 28.2 ng/mL | level at 5 min [7]: 27.4 ng/mL | level at 0.25 h [7]: 29.7 ng/mL | level at 0.5 h [7]: 12.2 ng/mL | level at 0.75 h [7]: 9.1 ng/mL | half-life (27 ug): 20 min | Tmax (27 ug): 15 min | bioavailability (31 ug): 42% | AUC(0-t) (31 ug): 12.5 ng·h/mL | Cmax (31 ug, Cmax): 23.6 ng/mL | level at 5 min [8]: 20.3 ng/mL | level at 0.25 h [8]: 23.6 ng/mL | level at 0.5 h [8]: 12.5 ng/mL | level at 0.75 h [8]: 4.73 ng/mL | level at 1.5 h [8]: 1.04 ng/mL | half-life (31 ug): 17 min | Tmax (31 ug): 15 min | bioavailability (32 ug): 102% | AUC(0-t) (32 ug): 27.4 ng·h/mL | Cmax (32 ug, Cmax): 49.2 ng/mL | level at 5 min [9]: 45.2 ng/mL | level at 0.25 h [9]: 49.2 ng/mL | level at 0.5 h [9]: 18.9 ng/mL | level at 0.75 h [9]: 13.6 ng/mL | level at 1.5 h [9]: 5.03 ng/mL | level at 5 min [10]: 25.1 ng/mL | level at 10 min [10]: 34.4 ng/mL | level at 0.25 h [10]: 34 ng/mL | level at 0.5 h [10]: 17.8 ng/mL | level at 0.75 h [10]: 12.7 ng/mL | half-life (32 ug): 25 min | Tmax (32 ug): 15 min | bioavailability (45.6 ug): 108% | AUC(0-t) (45.6 ug): 48.7 ng·h/mL | Cmax (45.6 ug, Cmax): 88.2 ng/mL | level at 5 min [11]: 88.2 ng/mL | level at 0.25 h [11]: 76.1 ng/mL | level at 0.5 h [11]: 36.1 ng/mL | level at 0.75 h [11]: 29.3 ng/mL | level at 1.5 h [11]: 4.79 ng/mL | half-life (45.6 ug): 20 min | Tmax (45.6 ug): 5 min | bioavailability (54 ug): 37% | AUC(0-t) (54 ug): 23 ng·h/mL | Cmax (54 ug, Cmax): 49.8 ng/mL | level at 5 min [12]: 16.5 ng/mL | level at 0.25 h [12]: 49.8 ng/mL | level at 0.5 h [12]: 17.1 ng/mL | level at 0.75 h [12]: 9.37 ng/mL | level at 1 h [12]: 7.75 ng/mL | half-life (54 ug): 24 min | Tmax (54 ug): 15 min | bioavailability (57.7 ug): 82% | AUC(0-t) (57.7 ug): 41.8 ng·h/mL | Cmax (57.7 ug, Cmax): 60.8 ng/mL | level at 5 min [13]: 43.1 ng/mL | level at 0.25 h [13]: 60.8 ng/mL | level at 0.5 h [13]: 40.1 ng/mL | level at 0.75 h [13]: 28.1 ng/mL | level at 1.5 h [13]: 3.72 ng/mL | half-life (57.7 ug): 18 min | Tmax (57.7 ug): 15 min | bioavailability (67.7 ug): 74% | AUC(0-t) (67.7 ug): 48.2 ng·h/mL | Cmax (67.7 ug, Cmax): 82.7 ng/mL | level at 5 min [14]: 64.9 ng/mL | level at 0.25 h [14]: 82.7 ng/mL | level at 0.5 h [14]: 51.3 ng/mL | level at 0.75 h [14]: 19.7 ng/mL | level at 1.5 h [14]: 7.6 ng/mL | half-life (67.7 ug): 22 min | Tmax (67.7 ug): 15 min | AUC(0-t) (141.9 ug): 173 ng·h/mL | Cmax (141.9 ug, Cmax): 230 ng/mL | level at 5 min [15]: 186 ng/mL | level at 0.25 h [15]: 230 ng/mL | level at 0.5 h [15]: 219 ng/mL | level at 0.75 h [15]: 91.8 ng/mL | level at 1.5 h [15]: 23.7 ng/mL | half-life (141.9 ug): 21 min | Tmax (141.9 ug): 15 min | bioavailability (386.5 ug): 22% | AUC(0-t) (386.5 ug): 75.5 ng·h/mL | Cmax (386.5 ug, Cmax): 118 ng/mL | level at 5 min [16]: 97.5 ng/mL | level at 0.25 h [16]: 133 ng/mL | level at 0.5 h [16]: 75.4 ng/mL | level at 0.75 h [16]: 42.2 ng/mL | level at 1.5 h [16]: 7.53 ng/mL | half-life (386.5 ug): 18 min | Tmax (386.5 ug): 15 min
Structure (SMILES): CC[C@H](C)[C@H](NC(=O)[C@H](CO)NC(=O)[C@H](CCCCN)NC(=O)CNC(=O)[C@H](CCCCN)NC(=O)[C@H](CC(=O)O)NC(=O)[C@H](Cc1cnc[nH]1)NC(=O)[C@H](CC(C)C)NC(=O)[C@H](CC(C)C)NC(=O)[C@H](CCC(N)=O)NC(=O)[C@H](Cc1cnc[nH]1)NC(=O)[C@H](CCC(=O)O)NC(=O)[C@H](CO)NC(=O)[C@@H](NC(=O)[C@H](C)N)C(C)C)C(=O)N[C@@H](CCC(N)=O)C(=O)N[C@@H](CC(=O)O)C(=O)N[C@@H](CC(C)C)C(=O)N[C@@H](CCCNC(=N)N)C(=O)N[C@@H](CCCNC(=N)N)C(=O)N[C@@H](CCCNC(=N)N)C(=O)N[C@@H](CCC(=O)O)C(=O)N[C@@H](CC(C)C)C(=O)N[C@@H](CC(C)C)C(=O)N[C@@H](CCC(=O)O)C(=O)N[C@@H](CCCCN)C(=O)N[C@@H](CC(C)C)C(=O)N[C@@H](CC(C)C)C(=O)NC(C)(C)C(=O)N[C@@H](CCCCN)C(=O)N[C@@H](CC(C)C)C(=O)N[C@@H](Cc1cnc[nH]1)C(=O)N[C@H](C(=O)N[C@@H](C)C(N)=O)[C@@H](C)O [Peptide]

Reference: patent publication US20210052705A1, “METHOD OF DRUG […] FOR PTH, PTHrP AND RELATED PEPTIDES” (Radius Health, Inc., priority 2011, published 2021)
